The structures appear in SMILES notation.

Series [1] in a line: Half life in CD-1 male mouse at 5 mg/kg, iv measured for 24 hrs by LC-MS/MS analysis. The series is classed as ADME, organism-based. The following applies: CD-1, mouse, in vivo.
Series [2] can be described thus: Cmax in CD-1 male mouse at 5 mg/kg, iv measured for 24 hrs by LC-MS/MS analysis. The series is classed as ADME, organism-based. Particulars: CD-1, mouse, in vivo.
Another series addresses T1, Histone deacetylase 11 (Homo sapiens, UniProt Q96DB2).
T1 sequence (Q96DB2 whole entry): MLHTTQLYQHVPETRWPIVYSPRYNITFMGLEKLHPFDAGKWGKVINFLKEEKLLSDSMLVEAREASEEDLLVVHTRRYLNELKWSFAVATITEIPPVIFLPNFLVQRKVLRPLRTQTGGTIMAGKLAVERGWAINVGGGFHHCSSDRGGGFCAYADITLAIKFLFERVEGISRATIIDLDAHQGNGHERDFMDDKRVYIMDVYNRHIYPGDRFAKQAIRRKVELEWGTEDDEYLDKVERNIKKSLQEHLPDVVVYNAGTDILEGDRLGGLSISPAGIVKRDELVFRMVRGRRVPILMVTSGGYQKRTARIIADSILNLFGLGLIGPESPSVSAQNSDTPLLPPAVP
The series can be described thus: Inhibition of full length human recombinant HDAC11 (1 to 347 residues) expressed in baculovirus-infected Sf9 cells using Boc-Lys-(trifluoroacetyl)-AMC as substrate preincubated with enzyme for 1 hr followed by substrate addition and measured after 2 hrs by fluorescence analysis.

Series [3] deals with Histone deacetylase 3/Nuclear receptor corepressor 2 (HDAC3/NCoR2) (Homo sapiens, UniProt O15379). The series can be described thus: Inhibition of C-terminal His-tagged human HDAC3 (1 to 428 residues)/N-terminal GST tagged human NCOR2 (395 to 489 residues) expressed in baculovirus-infected Sf9 cells using Boc-Lys-(acetyl)-AMC as substrate preincubated with enzyme for 1 hr followed by substrate addition and measured after 2 hrs by fluorescence analysis.

In the next series the test system is HL-60. Briefly: Antiproliferative activity against p53-null human HL-60 cells assessed as inhibition of cell growth incubated for 48 hrs by resazurin dye based fluorescence analysis. The series is classed as functional.
The next series concerns the target Histone deacetylase 4 (Homo sapiens, UniProt P56524). Briefly: Inhibition of C-terminal His-tagged/N-terminal GST-tagged human HDAC4 (627 to 1084 residues) expressed in baculovirus-infected Sf9 cells using Boc-Lys-(trifluoroacetyl)-AMC as substrate preincubated with enzyme for 1 hr followed by substrate addition and measured after 2 hrs by fluorescence analysis.

Series [4] in a line: Plasma clearance in CD-1 male mouse at 5 mg/kg, iv measured for 24 hrs by LC-MS/MS analysis. Particulars: CD-1, mouse. The series is classed as ADME, organism-based.
In the next series the test system is MV4-11. The series can be described thus: Antiproliferative activity against human MV4-11 cells harboring wild type p53 assessed as induction of cell death incubated for 48 hrs by resazurin dye based fluorescence analysis. The series is classed as functional. The following applies: read-out: LD50 (the source's name).
The nature of series [5]: AUC (0 to infinity) in CD-1 male mouse at 5 mg/kg, iv by LC-MS/MS analysis. The series is classed as ADME, organism-based. The following applies: CD-1, mouse, in vivo.
The target in the next series is T2, Histone deacetylase 8 (Homo sapiens, UniProt Q9BY41).
T2 sequence (Q9BY41 whole entry): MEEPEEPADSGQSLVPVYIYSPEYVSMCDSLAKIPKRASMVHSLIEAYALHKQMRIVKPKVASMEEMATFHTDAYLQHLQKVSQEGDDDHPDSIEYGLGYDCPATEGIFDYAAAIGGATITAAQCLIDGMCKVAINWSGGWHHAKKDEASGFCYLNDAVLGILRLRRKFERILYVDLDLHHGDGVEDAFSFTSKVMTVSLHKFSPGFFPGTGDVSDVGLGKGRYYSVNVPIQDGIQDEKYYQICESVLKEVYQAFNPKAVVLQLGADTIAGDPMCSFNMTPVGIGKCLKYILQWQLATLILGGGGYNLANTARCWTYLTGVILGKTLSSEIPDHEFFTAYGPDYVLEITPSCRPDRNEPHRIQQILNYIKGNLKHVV
The series can be described thus: Inhibition of C-terminal His-tagged full length human recombinant HDAC8 (1 to 377 residues) expressed in baculovirus-infected Sf9 cells using Boc-Lys-(trifluoroacetyl)-AMC as substrate preincubated with enzyme for 1 hr followed by substrate addition and measured after 2 hrs by fluorescence analysis.

For series [6], the target named is Nicotinamide phosphoribosyltransferase (Homo sapiens, UniProt P43490). Briefly: Inhibition of N-terminal GST-tagged human recombinant NAMPT (2 to 491 residues) expressed in Escherichia coli expression system incubated for 30 mins by fluorescence based analysis.
Sequence of Nicotinamide phosphoribosyltransferase (P43490 whole entry, the tested form may be a part): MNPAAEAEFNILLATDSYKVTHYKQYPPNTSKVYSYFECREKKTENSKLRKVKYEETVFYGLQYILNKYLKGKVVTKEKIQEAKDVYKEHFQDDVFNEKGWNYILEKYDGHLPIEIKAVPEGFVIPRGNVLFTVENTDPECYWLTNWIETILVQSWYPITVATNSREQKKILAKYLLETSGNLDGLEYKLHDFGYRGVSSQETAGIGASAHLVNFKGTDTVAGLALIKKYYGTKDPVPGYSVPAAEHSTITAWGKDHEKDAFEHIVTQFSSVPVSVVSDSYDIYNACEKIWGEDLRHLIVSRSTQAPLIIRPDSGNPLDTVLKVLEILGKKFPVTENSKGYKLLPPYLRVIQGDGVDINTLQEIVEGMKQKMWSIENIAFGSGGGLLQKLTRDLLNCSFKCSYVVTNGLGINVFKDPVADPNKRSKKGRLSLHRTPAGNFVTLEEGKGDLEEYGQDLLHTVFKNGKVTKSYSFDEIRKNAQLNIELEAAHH

Sequence of Histone deacetylase 4 (P56524 whole entry, the tested form may be a part): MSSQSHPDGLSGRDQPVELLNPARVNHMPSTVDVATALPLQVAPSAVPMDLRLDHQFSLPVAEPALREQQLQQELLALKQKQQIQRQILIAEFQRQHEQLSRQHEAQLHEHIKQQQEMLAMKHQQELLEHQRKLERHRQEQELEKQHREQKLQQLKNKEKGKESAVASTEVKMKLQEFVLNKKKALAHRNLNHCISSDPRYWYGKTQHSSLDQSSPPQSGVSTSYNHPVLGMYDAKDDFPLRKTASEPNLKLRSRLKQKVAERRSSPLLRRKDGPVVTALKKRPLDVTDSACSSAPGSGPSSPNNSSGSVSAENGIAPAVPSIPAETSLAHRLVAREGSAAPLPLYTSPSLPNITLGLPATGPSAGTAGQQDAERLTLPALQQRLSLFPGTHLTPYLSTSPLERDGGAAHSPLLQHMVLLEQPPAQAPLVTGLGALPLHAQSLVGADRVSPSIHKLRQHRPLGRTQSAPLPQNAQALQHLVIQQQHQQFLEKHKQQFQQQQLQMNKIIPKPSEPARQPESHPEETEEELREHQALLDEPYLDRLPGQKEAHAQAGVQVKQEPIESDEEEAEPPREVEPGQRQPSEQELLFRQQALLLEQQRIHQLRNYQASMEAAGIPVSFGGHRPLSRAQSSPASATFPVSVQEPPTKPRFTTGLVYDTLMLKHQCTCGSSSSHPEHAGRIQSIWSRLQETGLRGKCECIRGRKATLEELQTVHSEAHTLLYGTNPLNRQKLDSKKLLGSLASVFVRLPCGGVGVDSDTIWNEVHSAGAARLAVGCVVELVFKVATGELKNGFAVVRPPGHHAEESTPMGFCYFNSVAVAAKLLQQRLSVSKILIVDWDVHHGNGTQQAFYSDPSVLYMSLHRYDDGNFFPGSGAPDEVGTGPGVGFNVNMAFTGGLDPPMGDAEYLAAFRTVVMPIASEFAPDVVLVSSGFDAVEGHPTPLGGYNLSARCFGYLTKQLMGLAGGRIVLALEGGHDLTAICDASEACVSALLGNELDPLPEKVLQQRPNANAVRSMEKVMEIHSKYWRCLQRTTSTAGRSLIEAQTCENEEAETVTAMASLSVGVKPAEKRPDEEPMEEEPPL
Sequence of Histone deacetylase 3/Nuclear receptor corepressor 2 (HDAC3/NCoR2) (O15379 whole entry, the tested form may be a part): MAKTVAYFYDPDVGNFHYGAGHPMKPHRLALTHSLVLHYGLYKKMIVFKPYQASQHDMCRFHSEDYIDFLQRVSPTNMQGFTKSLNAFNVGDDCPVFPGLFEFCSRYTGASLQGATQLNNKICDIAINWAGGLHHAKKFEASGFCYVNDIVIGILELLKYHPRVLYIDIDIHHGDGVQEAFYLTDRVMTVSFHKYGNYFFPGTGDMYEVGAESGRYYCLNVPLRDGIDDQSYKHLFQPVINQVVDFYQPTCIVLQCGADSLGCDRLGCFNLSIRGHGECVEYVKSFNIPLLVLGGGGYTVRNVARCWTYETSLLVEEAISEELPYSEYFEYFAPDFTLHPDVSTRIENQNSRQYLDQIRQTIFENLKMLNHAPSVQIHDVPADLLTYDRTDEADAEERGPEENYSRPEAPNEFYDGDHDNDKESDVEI
Sequence of Histone deacetylase 3/Nuclear receptor corepressor 2 (HDAC3/NCoR2) (Q9Y618 whole entry, further chain, the tested form may be a part): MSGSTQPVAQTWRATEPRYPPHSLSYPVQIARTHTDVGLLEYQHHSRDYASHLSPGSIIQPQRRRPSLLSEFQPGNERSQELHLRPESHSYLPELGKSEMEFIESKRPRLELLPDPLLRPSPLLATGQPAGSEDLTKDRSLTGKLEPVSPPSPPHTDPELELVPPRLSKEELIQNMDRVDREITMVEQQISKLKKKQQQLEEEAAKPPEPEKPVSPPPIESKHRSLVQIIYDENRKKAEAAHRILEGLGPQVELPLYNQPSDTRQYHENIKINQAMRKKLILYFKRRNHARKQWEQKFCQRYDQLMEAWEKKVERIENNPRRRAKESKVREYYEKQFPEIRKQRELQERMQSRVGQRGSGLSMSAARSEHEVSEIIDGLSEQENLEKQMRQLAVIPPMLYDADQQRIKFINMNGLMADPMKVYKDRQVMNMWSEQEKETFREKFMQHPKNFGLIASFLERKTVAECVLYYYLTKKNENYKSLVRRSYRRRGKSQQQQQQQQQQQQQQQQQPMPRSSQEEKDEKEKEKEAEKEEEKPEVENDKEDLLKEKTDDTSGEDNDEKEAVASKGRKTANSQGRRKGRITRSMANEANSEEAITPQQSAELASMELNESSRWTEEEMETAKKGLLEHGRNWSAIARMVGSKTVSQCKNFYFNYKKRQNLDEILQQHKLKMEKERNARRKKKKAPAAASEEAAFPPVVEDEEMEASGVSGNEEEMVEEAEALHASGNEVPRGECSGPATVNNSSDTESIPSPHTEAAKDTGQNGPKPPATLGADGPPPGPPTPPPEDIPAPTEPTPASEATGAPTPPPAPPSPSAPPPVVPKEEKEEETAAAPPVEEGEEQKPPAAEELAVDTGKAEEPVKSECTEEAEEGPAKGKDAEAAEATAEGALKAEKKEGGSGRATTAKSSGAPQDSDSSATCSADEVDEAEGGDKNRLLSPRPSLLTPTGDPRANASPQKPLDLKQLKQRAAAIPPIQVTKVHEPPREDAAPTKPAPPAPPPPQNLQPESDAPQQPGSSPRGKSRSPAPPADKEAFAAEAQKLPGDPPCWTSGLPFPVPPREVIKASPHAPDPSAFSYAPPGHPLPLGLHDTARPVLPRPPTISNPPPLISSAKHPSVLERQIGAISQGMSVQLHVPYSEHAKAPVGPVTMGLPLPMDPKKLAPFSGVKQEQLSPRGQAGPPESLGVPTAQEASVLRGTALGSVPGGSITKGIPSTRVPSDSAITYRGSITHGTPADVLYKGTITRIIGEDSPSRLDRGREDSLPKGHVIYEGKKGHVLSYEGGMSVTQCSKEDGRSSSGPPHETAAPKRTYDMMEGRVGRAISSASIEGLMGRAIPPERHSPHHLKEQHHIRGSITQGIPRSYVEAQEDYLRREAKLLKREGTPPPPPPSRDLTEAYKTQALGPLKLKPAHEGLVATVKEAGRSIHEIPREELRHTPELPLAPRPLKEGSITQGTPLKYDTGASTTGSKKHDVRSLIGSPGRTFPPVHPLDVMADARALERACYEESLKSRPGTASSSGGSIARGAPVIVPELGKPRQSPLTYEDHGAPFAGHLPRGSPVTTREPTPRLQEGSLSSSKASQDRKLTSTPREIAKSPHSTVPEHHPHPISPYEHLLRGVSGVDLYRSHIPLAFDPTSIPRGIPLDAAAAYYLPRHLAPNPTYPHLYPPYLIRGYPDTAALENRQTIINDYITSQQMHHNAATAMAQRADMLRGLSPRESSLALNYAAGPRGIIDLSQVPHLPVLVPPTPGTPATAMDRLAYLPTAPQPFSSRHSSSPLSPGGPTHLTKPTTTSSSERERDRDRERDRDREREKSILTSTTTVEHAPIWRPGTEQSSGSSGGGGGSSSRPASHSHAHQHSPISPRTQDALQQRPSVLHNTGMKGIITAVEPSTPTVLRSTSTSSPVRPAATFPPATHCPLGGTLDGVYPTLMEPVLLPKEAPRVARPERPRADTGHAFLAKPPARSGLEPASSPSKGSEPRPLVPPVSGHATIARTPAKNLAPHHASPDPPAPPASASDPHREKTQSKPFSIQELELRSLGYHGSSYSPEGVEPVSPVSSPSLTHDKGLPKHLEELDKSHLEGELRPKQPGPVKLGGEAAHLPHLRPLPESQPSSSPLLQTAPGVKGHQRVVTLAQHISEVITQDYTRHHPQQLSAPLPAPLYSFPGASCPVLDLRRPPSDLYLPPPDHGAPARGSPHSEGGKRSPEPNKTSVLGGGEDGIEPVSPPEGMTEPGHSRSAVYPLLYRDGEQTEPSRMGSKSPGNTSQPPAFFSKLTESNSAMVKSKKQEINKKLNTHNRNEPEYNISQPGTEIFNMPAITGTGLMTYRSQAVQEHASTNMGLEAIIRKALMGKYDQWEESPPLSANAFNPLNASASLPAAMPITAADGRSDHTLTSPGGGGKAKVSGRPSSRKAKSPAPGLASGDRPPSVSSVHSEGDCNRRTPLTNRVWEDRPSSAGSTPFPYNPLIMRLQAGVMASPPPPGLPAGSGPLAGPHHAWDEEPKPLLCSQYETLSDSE

In the case of `CCCNNC(=O)c1ccc(CNC(=O)c2cc3cnccc3[nH]2)cc1`, the half-life in series [1] is 9.19 h. In series [2], this compound returned a Cmax of 11700 ng/mL. Besides, the IC50 at Histone deacetylase 11 was over 10000 nM; in [3] it was 0.72 nM; against Histone deacetylase 4, over 10000 nM; at Histone deacetylase 8, over 10000 nM. Further, in the series with HL-60, the GI50 worked out at 51.2 nM. The same compound yielded a clearance in series [4] of 25.1 mL/min/kg. Further, the CC50 with MV4-11 was determined as 58.2 nM. For the same compound, the area under the curve AUC(0-inf) in series [5] was determined as 3360 ng·h/mL.

Turning to `CCCNNC(=O)c1ccc(CNC(=O)/C=C/c2cccnc2)cc1`, the 50% inhibitory concentration (IC50) at Histone deacetylase 11 is over 10000 nM; in series [6], 1660 nM; on Histone deacetylase 4, over 10000 nM; on Histone deacetylase 8, over 10000 nM. For the same compound, in the series on HL-60, the GI50 was 42.2 nM. Further, in the series with MV4-11, the CC50 worked out at 218 nM.

(Values after ChEMBL document CHEMBL5505964, “HDAC/NAMPT dual inhibitors overcome initial drug-resistance in p53-null leukemia cells” (Eur J Med Chem, 2024).)
